Experimental data published in patent US12428423B2, “1H-imidazo[4,5-h]quinazoline compound as protein kinase inhibitor” (SHENGKE PHARMACEUTICALS (JIANGSU) LTD., priority 2017, dated 2025).
Structures can show the parent of a compound that is named as a salt.

How the values were obtained:
CDK4/cyclin D1 = CDK4/cyclin D1 (Homo sapiens (Human), UniProt P11802); assay: Biochemical kinase inhibitory assay, CDK4/cyclin D1; details: recombinant CDK4/cyclin D1; in the presence of 10 μM ATP
Method: Potency determination in the biochemical kinase inhibitory assay. Kinase activity assay and IC50 determination. […] The kinase reaction was initiated by the addition of 1 μg (1.5 μM) of recombinant retinoblastoma protein, 5 μM ATP and 10μ Ci γ-32P-ATP. The reaction was incubated at 30° C. for 20 minutes, and the reaction was stopped by the addition of 2× Laemmli sample buffer, heated at 95° C. for three minutes, and dissolved in 12% acrylamide SDS-PAGE for autoradiography. The corresponding phosphorylated substrate protein bands were quantified using a densitometer (Bio-Rad). […] The reaction took place in the presence of 10 μM ATP.

CDK6/cyclin D1 = CDK6/cyclin D1 (Homo sapiens (Human), UniProt Q00534); assay: Biochemical kinase inhibitory assay, CDK6/cyclin D1; details: in the presence of 10 μM ATP
Method: Potency determination in the biochemical kinase inhibitory assay. Kinase activity assay and IC50 determination. […] The kinase reaction was initiated by the addition of 1 μg (1.5 μM) of recombinant retinoblastoma protein, 5 μM ATP and 10μ Ci γ-32P-ATP. The reaction was incubated at 30° C. for 20 minutes, and the reaction was stopped by the addition of 2× Laemmli sample buffer, heated at 95° C. for three minutes, and dissolved in 12% acrylamide SDS-PAGE for autoradiography. The corresponding phosphorylated substrate protein bands were quantified using a densitometer (Bio-Rad). […] The compounds disclosed herein were tested in a similar manner for their inhibitory activities against CDK6/cyclin D1, CDK2/cyclin A, CDK5/cyclin P25, CDK9/cyclin Ti, CDK7/cyclin H and CDK19/cyclin C. […] The reaction took place in the presence of 10 μM ATP.

Chain of CDK6/cyclin D1 (Q00534 whole entry): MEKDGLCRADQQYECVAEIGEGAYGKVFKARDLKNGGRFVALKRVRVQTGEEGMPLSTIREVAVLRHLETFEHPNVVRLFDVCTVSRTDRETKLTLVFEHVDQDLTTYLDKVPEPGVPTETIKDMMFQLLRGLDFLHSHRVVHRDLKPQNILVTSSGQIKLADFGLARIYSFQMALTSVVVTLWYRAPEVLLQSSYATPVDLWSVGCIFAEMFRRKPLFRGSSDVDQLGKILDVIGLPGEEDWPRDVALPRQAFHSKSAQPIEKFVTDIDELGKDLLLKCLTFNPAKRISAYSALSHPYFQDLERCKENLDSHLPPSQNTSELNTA
Chain of CDK6/cyclin D1 (P24385 whole entry partner): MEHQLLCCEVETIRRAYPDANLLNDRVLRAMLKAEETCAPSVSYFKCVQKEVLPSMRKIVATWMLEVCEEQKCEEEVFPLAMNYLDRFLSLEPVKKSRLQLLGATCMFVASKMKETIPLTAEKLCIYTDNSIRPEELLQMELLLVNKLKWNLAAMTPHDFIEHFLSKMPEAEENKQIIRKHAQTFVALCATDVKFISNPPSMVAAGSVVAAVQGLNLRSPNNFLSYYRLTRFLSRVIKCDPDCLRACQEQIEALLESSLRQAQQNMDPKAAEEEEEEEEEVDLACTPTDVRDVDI
Chain of CDK4/cyclin D1 (P11802 whole entry): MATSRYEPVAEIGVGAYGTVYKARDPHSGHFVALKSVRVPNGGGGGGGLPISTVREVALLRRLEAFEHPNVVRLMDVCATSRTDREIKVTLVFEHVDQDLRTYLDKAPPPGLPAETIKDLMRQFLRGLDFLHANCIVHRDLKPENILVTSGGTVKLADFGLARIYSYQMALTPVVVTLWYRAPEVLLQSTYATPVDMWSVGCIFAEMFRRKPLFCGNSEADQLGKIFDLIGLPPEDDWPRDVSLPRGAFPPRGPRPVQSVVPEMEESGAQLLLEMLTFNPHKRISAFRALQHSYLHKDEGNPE
Chain of CDK4/cyclin D1 (P24385 whole entry partner): as the sequence (P24385 whole entry partner) above

Row | SMILES | IC50 (CDK4/cyclin D1) | IC50 (CDK6/cyclin D1)
1 | CC(C)n1cnc2ccc3cnc(Nc4ccc(N5CCNCC5)cn4)nc3c21 [Compound I-1, 1-Isopropyl-N-(5-(piperazin-1-yl)pyridin-2-yl)-1H-imidazo[4,5-h]quinazolin-8-amine hydrochloride] | < 0.002 µM | < 0.002 µM
2 | CC(C)n1cnc2ccc3cnc(Nc4ccc(N5CCN(C)CC5)cn4)nc3c21 [Compound I-2, 1-isopropyl-N-(5-(4-methylpiperazin-1-yl)pyridin-2-yl)-1H-imidazo[4,5-h]quinazolin-8-amine] | 0.002 to 0.01 µM | 0.002 to 0.01 µM
3 | Cc1cc(Nc2ncc3ccc4ncn(C(C)C)c4c3n2)ncc1N1CCN(C)CC1 [Compound I-3] | 0.002 to 0.01 µM | 0.002 to 0.01 µM
4 | Cc1nc(Nc2ncc3ccc4ncn(C(C)C)c4c3n2)ccc1N1CCN(C)CC1 [Compound I-4] | 0.002 to 0.01 µM | 0.002 to 0.01 µM
5 | CCN1CCN(c2ccc(Nc3ncc4ccc5ncn(C(C)C)c5c4n3)nc2)CC1 [Compound I-5] | < 0.002 µM | < 0.002 µM
6 | CCN1CCN(c2cnc(Nc3ncc4ccc5ncn(C(C)C)c5c4n3)cc2C)CC1 [Compound I-6] | 0.002 to 0.01 µM | 0.002 to 0.01 µM
7 | CCN1CCN(c2ccc(Nc3ncc4ccc5ncn(C(C)C)c5c4n3)nc2C)CC1 [Compound I-7] | 0.002 to 0.01 µM | 0.002 to 0.01 µM
8 | Cc1cc(Nc2ncc3ccc4ncn(C(C)C)c4c3n2)ncc1N1CCNCC1 [Compound I-8] | < 0.002 µM | < 0.002 µM
9 | Cc1nc(Nc2ncc3ccc4ncn(C(C)C)c4c3n2)ccc1N1CCNCC1 [Compound I-9] | < 0.002 µM | < 0.002 µM
10 | CC(C)n1cnc2ccc3cnc(Nc4ccc(N5CCN[C@@H](C)C5)cn4)nc3c21 [Compound I-10] | 0.002 to 0.01 µM | 0.002 to 0.01 µM
11 | CC(C)n1cnc2ccc3cnc(Nc4ccc(N5CCNC(C)(C)C5)cn4)nc3c21 [Compound I-11] | 0.002 to 0.01 µM | 0.002 to 0.01 µM
12 | CC(C)n1cnc2ccc3cnc(Nc4ccc(N5C[C@@H](C)N[C@@H](C)C5)cn4)nc3c21 [Compound I-12] | 0.002 to 0.01 µM | 0.002 to 0.01 µM
13 | CC(C)n1cnc2ccc3cnc(Nc4cc(F)c(N5CCNCC5)cn4)nc3c21 [Compound I-13] | 0.01 to 0.05 µM | 0.01 to 0.05 µM
14 | CC(C)n1cnc2ccc3cnc(Nc4ccc(N5CCCNCC5)cn4)nc3c21 [Compound I-14] | 0.01 to 0.05 µM | 0.01 to 0.05 µM
15 | CC(C)n1cnc2ccc3cnc(Nc4ccc(N5CCN(CCO)CC5)cn4)nc3c21 [Compound I-15] | 0.01 to 0.05 µM | 0.01 to 0.05 µM
16 | CC(C)n1cnc2ccc3cnc(Nc4ccc(N5CCCCC5)cn4)nc3c21 [Compound I-16] | 0.01 to 0.05 µM | 0.01 to 0.05 µM
17 | CC(C)n1cnc2ccc3cnc(Nc4ccc(N5CCC(O)CC5)cn4)nc3c21 [Compound I-17] | 0.01 to 0.05 µM | 0.01 to 0.05 µM
18 | CC(C)n1cnc2ccc3cnc(Nc4ccc(N5CCC(CCCO)CC5)cn4)nc3c21 [Compound I-18] | 0.01 to 0.05 µM | 0.01 to 0.05 µM
19 | CC(C)n1cnc2ccc3cnc(Nc4ccc(N5CCC(N(C)C)CC5)cn4)nc3c21 [Compound I-19] | 0.01 to 0.05 µM | 0.01 to 0.05 µM
20 | CC(C)n1cnc2ccc3cnc(Nc4ccc(N5CCC(N(C)C)CC5)c(F)n4)nc3c21 [Compound I-20] | 0.01 to 0.05 µM | 0.01 to 0.05 µM
21 | CC(C)n1cnc2ccc3cnc(Nc4ccc(N5CCC(N)CC5)cn4)nc3c21 [Compound I-21] | 0.01 to 0.05 µM | 0.01 to 0.05 µM
22 | CC(C)n1cnc2ccc3cnc(Nc4ccc(N5CCC(N)C5)cn4)nc3c21 (stereo not drawn) [Compound I-22] | 0.01 to 0.05 µM | 0.01 to 0.05 µM
23 | CC(C)n1cnc2ccc3cnc(Nc4ccc(N5CCOCC5)cn4)nc3c21 [Compound I-23] | < 0.002 µM | < 0.002 µM
24 | Cc1cc(Nc2ncc3ccc4ncn(C(C)C)c4c3n2)ncc1N1CCOCC1 [Compound I-24] | 0.002 to 0.01 µM | 0.002 to 0.01 µM
25 | Cc1nc(Nc2ncc3ccc4ncn(C(C)C)c4c3n2)ccc1N1CCOCC1 [Compound I-25] | 0.002 to 0.01 µM | 0.002 to 0.01 µM
26 | CC1CN(c2ccc(Nc3ncc4ccc5ncn(C(C)C)c5c4n3)nc2)CCO1 (stereo not drawn) [Compound I-26] | 0.002 to 0.01 µM | 0.002 to 0.01 µM
27 | CC(C)n1cnc2ccc3cnc(Nc4ccc(N5C[C@@H](C)O[C@@H](C)C5)cn4)nc3c21 [Compound I-27] | 0.002 to 0.01 µM | 0.002 to 0.01 µM
28 | CC(C)n1cnc2ccc3cnc(Nc4ccc(N5CCC6(CCNCC6)C5)cn4)nc3c21 [Compound I-28] | 0.01 to 0.05 µM | 0.01 to 0.05 µM
29 | CC(C)n1cnc2ccc3cnc(Nc4ccc(N5CCC6(CNC6)C5)cn4)nc3c21 [Compound I-29] | 0.01 to 0.05 µM | 0.01 to 0.05 µM
30 | CC(C)n1cnc2ccc3cnc(Nc4ccc(N5CC6(CNC6)C5)cn4)nc3c21 [Compound I-30] | 0.01 to 0.05 µM | 0.01 to 0.05 µM
